Tests used:
SD rats = assay: animal or person; assay type: in vivo; details: for ED50: Rattus norvegicus, SD rats (male, 220-300 g), injection via the tail vein, disappearance of righting reflex, read-out: ED50; for 2ED50 duration / 2ED50 recovery time / Quality of recovery: SD rats; for 2ED50 duration / 2ED50 recovery time: single tail vein injection at 2×ED50; for 2ED50 duration: time from disappearance to recovery of righting reflex; for 2ED50 recovery time: time from recovery of righting reflex to free crawling; for Quality of recovery: tail vein injection; for duration and recovery time compared with remimazolam / effective dose compared with remimazolam: rats, tail vein, in words
KM mice = assay: animal or person; assay type: in vivo; details: for 2ED50 duration / 2ED50 recovery time / Quality of recovery: KM mice; for 2ED50 duration / 2ED50 recovery time: single tail vein injection at 2×ED50; for 2ED50 duration: time from disappearance to recovery of righting reflex; for 2ED50 recovery time: time from recovery of righting reflex to free crawling; for ED50: Mus musculus, KM mice (male, 18-22 g), injection via the tail vein, disappearance of righting reflex, read-out: ED50; for duration and recovery time compared with remimazolam / effective dose compared with remimazolam: mice, tail vein, in words; for Quality of recovery: tail vein injection

COC(=O)OC(C)OC(=O)CC[C@@H]1N=C(c2ccccn2)c2cc(Br)ccc2-n2c(C)cnc21 (stereo partly drawn) [Example 53]
ED50 (SD rats): 6 mg/kg
2ED50 duration (SD rats): 3.18 min
2ED50 recovery time (SD rats): 2.47 min
Quality of recovery (SD rats): ++ (“++” means 1-3 min)
duration and recovery time compared with remimazolam (SD rats): significantly shorter
effective dose compared with remimazolam (SD rats): significantly lower
2ED50 duration (KM mice): 3.61 min
2ED50 recovery time (KM mice): 2.41 min
ED50 (KM mice): 25.7 mg/kg
duration and recovery time compared with remimazolam (KM mice): significantly shorter
effective dose compared with remimazolam (KM mice): significantly lower

CCOC(=O)OC(C)OC(=O)CC[C@@H]1N=C(c2ccccn2)c2cc(Br)ccc2-n2c(C)cnc21 (stereo partly drawn) [Example 54]
ED50 (SD rats): 6.4 mg/kg
2ED50 duration (SD rats): 3.22 min
2ED50 recovery time (SD rats): 2.52 min
Quality of recovery (SD rats): +++ (“+++” means 3-5 min)
duration and recovery time compared with remimazolam (SD rats): significantly shorter
effective dose compared with remimazolam (SD rats): significantly lower
2ED50 duration (KM mice): 8.52 min
2ED50 recovery time (KM mice): 1.56 min
ED50 (KM mice): 25 mg/kg
duration and recovery time compared with remimazolam (KM mice): significantly shorter
effective dose compared with remimazolam (KM mice): significantly lower

Cc1cnc2n1-c1ccc(Br)cc1C(c1ccccn1)=N[C@H]2CCC(=O)OC(C)OC(=O)OC(C)C (stereo partly drawn) [Example 55]
ED50 (SD rats): 5.2 mg/kg
2ED50 duration (SD rats): 3.28 min
2ED50 recovery time (SD rats): 2.51 min
Quality of recovery (SD rats): + (“+” means <1 min)
duration and recovery time compared with remimazolam (SD rats): significantly shorter
effective dose compared with remimazolam (SD rats): significantly lower
2ED50 duration (KM mice): 4.65 min
2ED50 recovery time (KM mice): 1.29 min
ED50 (KM mice): 28.1 mg/kg
duration and recovery time compared with remimazolam (KM mice): significantly shorter
effective dose compared with remimazolam (KM mice): significantly lower

COC(=O)COC(=O)CC[C@@H]1N=C(c2ccccn2)c2cc(Br)ccc2-n2c(C)cnc21 [Example 56, 2-Methoxy-2-oxoethyl-3-((4S)-8-bromo-1-methyl-6-(pyridine-2-yl)-4H-benzo[f]imidazo[1,2-a][1,4]diaza-4-ylpropionate]
ED50 (SD rats): 6.8 mg/kg
2ED50 duration (SD rats): 1.05 min
2ED50 recovery time (SD rats): 1.12 min
Quality of recovery (SD rats): ++ (“++” means 1-3 min)
2ED50 duration (KM mice): 4.08 min
2ED50 recovery time (KM mice): 1.20 min
Quality of recovery (KM mice): ++ (“++” means 1-3 min)
ED50 (KM mice): 27.2 mg/kg

CCOC(=O)COC(=O)CC[C@@H]1N=C(c2ccccn2)c2cc(Br)ccc2-n2c(C)cnc21 [Example 57, 2-Ethoxy-2-oxoethyl-3-((4S)-8-bromo-1-methyl-6-(pyridine-2-yl)-4H-benzo [f]imidazo[1,2-a][1,4]diaza-4-ylpropionate]
ED50 (SD rats): 4.7 mg/kg
2ED50 duration (SD rats): 5.07 min
2ED50 recovery time (SD rats): 2.41 min
Quality of recovery (SD rats): + (“+” means <1 min)
duration and recovery time compared with remimazolam (SD rats): significantly shorter
effective dose compared with remimazolam (SD rats): significantly lower
2ED50 duration (KM mice): 3.90 min
2ED50 recovery time (KM mice): 2.31 min
ED50 (KM mice): 25 mg/kg
duration and recovery time compared with remimazolam (KM mice): significantly shorter
effective dose compared with remimazolam (KM mice): significantly lower

COC(=O)C1(OC(=O)CC[C@@H]2N=C(c3ccccn3)c3cc(Br)ccc3-n3c(C)cnc32)CC1 [Example 58, Methyl 1-((3-((4S)-8-bromo-1-methyl-6-(pyridine-2-yl)-4H-benzo[f]imidazo [1,2-a][1,4]diaza-4-yl)propionyl)oxy) cyclopropane-1-carboxylate]
ED50 (SD rats): 5.6 mg/kg
2ED50 duration (SD rats): 5.09 min
2ED50 recovery time (SD rats): 3.01 min
Quality of recovery (SD rats): +++ (“+++” means 3-5 min)
2ED50 duration (KM mice): 3.18 min
2ED50 recovery time (KM mice): 1.41 min
Quality of recovery (KM mice): +++ (“+++” means 3-5 min)
ED50 (KM mice): 28 mg/kg

From US12473291B2 (priority 2019, dated 2025)
